Earlier results in patent US20220313608A1, “TREATMENT OF BREAST CANCER” (SynCore Biotechnology Co., Ltd., priority 2015, published 2022).

Tested on: metastatic breast cancer patients
Conditions: first-line, gemcitabine 1250 mg/m^2 days 1 and 8, paclitaxel 175 mg/m^2 triweekly

CC(=O)O[C@H]1C(=O)[C@@]2(C)[C@H]([C@H](OC(=O)c3ccccc3)[C@]3(O)C[C@H](OC(=O)[C@H](O)[C@@H](NC(=O)c4ccccc4)c4ccccc4)C(C)=C1C3(C)C)[C@]1(OC(C)=O)CO[C@@H]1C[C@@H]2O [paclitaxel]
frequency of alteration of hepatic function: 2%
